pIC50: −log10 of the molar value.

For the first assay, the target named is T1, PI3K beta (Homo sapiens, UniProt P42338).
T1 construct: for the full-length p110-b subunit are generated and fused by overlapping PCR; His tag (C); made in house; host or cells: baculovirus BV949; Tn5 (Trichoplusia ni) or TiniPro insect cells
T1 sequence (P42338 with tags, fused parts or gaps limits assumed): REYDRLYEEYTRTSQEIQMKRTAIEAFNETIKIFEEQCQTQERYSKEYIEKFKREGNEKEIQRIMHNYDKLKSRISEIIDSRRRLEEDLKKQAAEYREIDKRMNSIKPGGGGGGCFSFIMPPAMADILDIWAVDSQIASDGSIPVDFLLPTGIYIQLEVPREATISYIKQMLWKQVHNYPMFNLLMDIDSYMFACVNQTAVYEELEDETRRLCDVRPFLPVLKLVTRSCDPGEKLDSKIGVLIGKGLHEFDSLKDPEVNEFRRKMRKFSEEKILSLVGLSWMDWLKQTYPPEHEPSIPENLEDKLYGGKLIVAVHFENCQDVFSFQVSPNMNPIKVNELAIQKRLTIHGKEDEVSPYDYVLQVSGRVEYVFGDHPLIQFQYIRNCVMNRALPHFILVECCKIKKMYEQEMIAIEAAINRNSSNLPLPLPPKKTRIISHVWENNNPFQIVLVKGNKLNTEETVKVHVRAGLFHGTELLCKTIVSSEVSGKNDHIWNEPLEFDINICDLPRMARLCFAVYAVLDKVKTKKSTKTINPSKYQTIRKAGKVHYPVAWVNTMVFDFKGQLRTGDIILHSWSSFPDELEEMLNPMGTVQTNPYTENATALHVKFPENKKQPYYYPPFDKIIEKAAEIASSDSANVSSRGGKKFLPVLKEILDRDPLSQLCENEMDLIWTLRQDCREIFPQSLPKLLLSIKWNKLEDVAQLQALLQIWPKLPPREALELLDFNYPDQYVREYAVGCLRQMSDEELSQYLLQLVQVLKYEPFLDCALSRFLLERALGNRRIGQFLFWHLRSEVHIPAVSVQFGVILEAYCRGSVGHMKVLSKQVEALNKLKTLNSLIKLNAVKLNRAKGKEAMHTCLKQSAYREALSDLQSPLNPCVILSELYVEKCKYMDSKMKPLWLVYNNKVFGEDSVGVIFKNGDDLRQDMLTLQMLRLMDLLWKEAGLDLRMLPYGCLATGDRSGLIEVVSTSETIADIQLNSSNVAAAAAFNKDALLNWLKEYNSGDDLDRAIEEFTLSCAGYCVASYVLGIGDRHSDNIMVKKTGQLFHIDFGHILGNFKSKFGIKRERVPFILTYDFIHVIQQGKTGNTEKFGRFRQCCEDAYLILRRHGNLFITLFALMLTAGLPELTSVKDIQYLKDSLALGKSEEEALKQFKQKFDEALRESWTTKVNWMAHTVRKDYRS
Nature of the assay: PI3K beta kinase assay (Kinase-Glo luminescence). It counts as biochemical. Particulars: read-out: EPK_PI3Kbeta/IC50. In short, it runs like this: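 PI3Kβ construct BV949 (p85 iSH2–p110β full-length, C-His), 25 nM, reacted with 1 μM ATP and 10 μg/mL phosphatidylinositol in Tris pH 7.5, MgCl2, NaCl, CHAPS, DTT buffer, 60 min at room temperature. Remaining ATP by Kinase-Glo luminescence; IC50 from 4-parameter logistic fit of 8 concentrations.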
A general note: In Kinase-Glo more light means more ATP remaining.
`COCc1ncc(-c2ccc3ncc4c(c3c2)n(-c2cccnc2C)c(=O)n4C)cc1OC` [Example 2.30, 8-(5-Methoxy-6-methoxymethyl-pyridin-3-yl)-3-methyl-1-(2-methyl-pyridin-3-yl)-1,3-dihydro-imidazo[4,5-c]quinolin-2-one]: the pIC50 was 6.40. Still for that read-out and setting: next, `Cc1nc(F)ccc1-n1c(=O)n(C)c2cnc3ccc(-c4cncc(N5CCC5)c4)cc3c21` [Example 7.6, 8-(5-Azetidin-1-yl-pyridin-3-yl)-1-(6-fluoro-2-methyl-pyridin-3-yl)-3-methyl-1,3-dihydro-imidazo[4,5-c]quinolin-2-one]: 6.02; `COCc1ncc(-c2ccc3ncc4c(c3c2)n(-c2ccc(F)nc2C)c(=O)n4C)cc1OC` [Example 7.7, 1-(6-Fluoro-2-methyl-pyridin-3-yl)-8-(5-methoxy-6-methoxymethyl-pyridin-3-yl)-3-methyl-1,3-dihydro-imidazo[4,5-c]quinolin-2-one]: 6.44; `COc1cc(-c2ccc3ncc4c(c3c2)n(-c2ccc(F)nc2C)c(=O)n4C)cnc1CO` [Example 7.10, 1-(6-Fluoro-2-methyl-pyridin-3-yl)-8-(6-hydroxymethyl-5-methoxy-pyridin-3-yl)-3-methyl-1,3-dihydro-imidazo[4,5-c]quinolin-2-one]: 7.70.

As to `COc1ccc(-n2c(=O)n(C)c3cnc4ccc(-c5cncc(N6CCC6)c5)cc4c32)c(OC)n1` [Example 8.11, 8-(5-Azetidin-1-yl-pyridin-3-yl)-1-(2,6-dimethoxy-pyridin-3-yl)-3-methyl-1,3-dihydro-imidazo[4,5-c]quinolin-2-one], the pIC50 was 6.14. As for `COc1ccc(-n2c(=O)n(C)c3cnc4ccc(-c5cnc(C(OC)OC)c(OC)c5)cc4c32)c(OC)n1` [Example 8.13, 8-(6-Dimethoxymethyl-5-methoxy-pyridin-3-yl)-1-(2,6-dimethoxy-pyridin-3-yl)-3-methyl-1,3-dihydro-imidazo[4,5-c]quinolin-2-one], the pIC50 was 6.58. In the case of `COc1ccc(-n2c(=O)n(C)c3cnc4ccc(-c5cnc(CO)c(OC)c5)cc4c32)c(OC)n1` [Example 8.14, 1-(2,6-Dimethoxy-pyridin-3-yl)-8-(6-hydroxymethyl-5-methoxy-pyridin-3-yl)-3-methyl-1,3-dihydro-imidazo[4,5-c]quinolin-2-one], the pIC50 was 5.81. In the case of `COc1cc(-c2ccc3ncc4c(c3c2)n(-c2ccc(N3CC(F)(F)C3)nc2C)c(=O)n4C)cnc1CO` [Example 24.4, 1-[6-(3,3-Difluoro-azetidin-1-yl)-2-methyl-pyridin-3-yl]-8-(6-hydroxymethyl-5-methoxy-pyridin-3-yl)-3-methyl-1,3-dihydro-imidazo[4,5-c]quinolin-2-one], the pIC50 was 5.64. The same measure, in the same setting: next, `COc1cc(-c2ccc3ncc4c(c3c2)n(-c2ccc(N3CCCC3)nc2C)c(=O)n4C)cnc1CO` [Example 25.4, 8-(6-Hydroxymethyl-5-methoxy-pyridin-3-yl)-3-methyl-1-(2-methyl-6-pyrrolidin-1-yl-pyridin-3-yl)-1,3-dihydro-imidazo[4,5-c]quinolin-2-one]: 6.57.

Turning to `CCNc1cc(-c2ccc3ncc4c(c3c2)n(-c2ccc(N3CCCC3)nc2C)c(=O)n4C)cnc1CO` [Example 25.5, 8-(5-Ethylamino-6-hydroxymethyl-pyridin-3-yl)-3-methyl-1-(2-methyl-6-pyrrolidin-1-yl-pyridin-3-yl)-1,3-dihydro-imidazo[4,5-c]quinolin-2-one], the pIC50 was 7.92.

With `CCNc1cc(-c2ccc3ncc4c(c3c2)n(-c2ccc(N(C)CCO)nc2C)c(=O)n4C)cnc1CO` [Example 26.3, 8-(5-Ethylamino-6-hydroxymethyl-pyridin-3-yl)-1-{6-[(2-hydroxy-ethyl)-methyl-amino]-2-methyl-pyridin-3-yl}-3-methyl-1,3-dihydro-imidazo[4,5-c]quinolin-2-one], the pIC50 is 5.70.

With `Cc1nc(N2CCC(O)C2)ccc1-n1c(=O)n(C)c2cnc3ccc(-c4cnc(N)c(C(F)(F)F)c4)cc3c21` (stereo not shown) [Example 27.3, 8-(6-Amino-5-trifluoromethyl-pyridin-3-yl)-1-[6-(3-hydroxy-pyrrolidin-1-yl)-2-methyl-pyridin-3-yl]-3-methyl-1,3-dihydro-imidazo[4,5-c]quinolin-2-one], the pIC50 is 7.44.

With `CCOc1ccc(-c2ccc3ncc4c(c3c2)n(-c2ccc(N3CCC(O)C3)nc2C)c(=O)n4C)cn1` (stereo not shown) [Example 27.4, 8-(6-Ethoxy-pyridin-3-yl)-1-[6-(3-hydroxy-pyrrolidin-1-yl)-2-methyl-pyridin-3-yl]-3-methyl-1,3-dihydro-imidazo[4,5-c]quinolin-2-one], the pIC50 was 6.04. Still for that read-out and setting: the same measure for `Cc1nc(N2CCC(O)C2)ccc1-n1c(=O)n(C)c2cnc3ccc(-c4cncc(C(C)(C)O)c4)cc3c21` (stereo not shown) [Example 27.5, 8-[5-(1-Hydroxy-1-methyl-ethyl)-pyridin-3-yl]-1-[6-(3-hydroxy-pyrrolidin-1-yl)-2-methyl-pyridin-3-yl]-3-methyl-1,3-dihydro-imidazo[4,5-c]quinolin-2-one]: 7.77; for `CNc1ncc(-c2ccc3ncc4c(c3c2)n(-c2ccc(N3CCC(OC)C3)nc2C)c(=O)n4C)cn1` (stereo not shown) [Example 28.2, 1-[6-(3-Methoxy-pyrrolidin-1-yl)-2-methyl-pyridin-3-yl]-3-methyl-8-(2-methylamino-pyrimidin-5-yl)-1,3-dihydro-imidazo[4,5-c]quinolin-2-one]: 6.52; for `COc1cc(-c2ccc3ncc4c(c3c2)n(-c2ccc(N3CCC(OC)C3)nc2C)c(=O)n4C)cnc1CO` (stereo not shown) [Example 28.3, 8-(6-Hydroxymethyl-5-methoxy-pyridin-3-yl)-1-[6-(3-methoxy-pyrrolidin-1-yl)-2-methyl-pyridin-3-yl]-3-methyl-1,3-dihydro-imidazo[4,5-c]quinolin-2-one]: 6.76.

Turning to `Cc1nc(N2CC(O)C2)ccc1-n1c(=O)n(C)c2cnc3ccc(-c4cncc(C(C)(C)O)c4)cc3c21` [Example 29.1, 1-[6-(3-Hydroxy-azetidin-1-yl)-2-methyl-pyridin-3-yl]-8-[5-(1-hydroxy-1-methyl-ethyl)-pyridin-3-yl]-3-methyl-1,3-dihydro-imidazo[4,5-c]quinolin-2-one], the pIC50 was 7.22. On the same count and under the same terms, next, `COc1cc(-c2ccc3ncc4c(c3c2)n(-c2ccc(N)nc2C)c(=O)n4C)cnc1CO` [Example 30.1, 1-(6-Amino-2-methyl-pyridin-3-yl)-8-(6-hydroxymethyl-5-methoxy-pyridin-3-yl)-3-methyl-1,3-dihydro-imidazo[4,5-c]quinolin-2-one]: 6.37. Take `CNc1ncc(-c2ccc3ncc4c(c3c2)n(-c2ccc(N3CC[C@H](O)C3)nc2C)c(=O)n4C)cc1Cl` [Example 32.4, 8-(5-Chloro-6-methylamino-pyridin-3-yl)-1-[6-((S)-3-hydroxy-pyrrolidin-1-yl)-2-methyl-pyridin-3-yl]-3-methyl-1,3-dihydro-imidazo[4,5-c]quinolin-2-one]: the pIC50 was 6.97. Same read-out and setting: the same measure for `COc1cc(-c2ccc3ncc4c(c3c2)n(-c2ccc(N3CC[C@H](O)C3)nc2C)c(=O)n4C)cnc1CO` [Example 32.7, 8-(6-Hydroxymethyl-5-methoxy-pyridin-3-yl)-1-[6-((S)-3-hydroxy-pyrrolidin-1-yl)-2-methyl-pyridin-3-yl]-3-methyl-1,3-dihydro-imidazo[4,5-c]quinolin-2-one]: 6.70.

Consider `CNc1ncc(-c2ccc3ncc4c(c3c2)n(-c2ccc(N3CC[C@@H](O)C3)nc2C)c(=O)n4C)cn1` [Example 34.1, 1-[6-((R)-3-Hydroxy-pyrrolidin-1-yl)-2-methyl-pyridin-3-yl]-3-methyl-8-(2-methylamino-pyrimidin-5-yl)-1,3-dihydro-imidazo[4,5-c]quinolin-2-one], for which the pIC50 was 5.96. On the same count and under the same terms, next, `CCNc1cc(-c2ccc3ncc4c(c3c2)n(-c2ccc(N3CC(F)(F)C(F)(F)C3)nc2C)c(=O)n4C)cnc1CO` [Example 35.2, 8-(5-Ethylamino-6-hydroxymethyl-pyridin-3-yl)-3-methyl-1-[2-methyl-6-(3,3,4,4-tetrafluoro-pyrrolidin-1-yl)-pyridin-3-yl]-1,3-dihydro-imidazo[4,5-c]quinolin-2-one]: 7.11.

The same assay, now with this note: read-out: PI3Kbeta/IC50.
On to `CNC(=O)c1ccc(-c2ccc3ncc4c(c3c2)n(-c2cccnc2C)c(=O)n4C)cc1` [Example 2.4, N-Methyl-4-[3-methyl-1-(2-methyl-pyridin-3-yl)-2-oxo-2,3-dihydro-1H-imidazo[4,5-c]quinolin-8-yl]-benzamide], for which the pIC50 was 6.17. `Cc1ncccc1-n1c(=O)n(C)c2cnc3ccc(-c4cnc5[nH]ccc5c4)cc3c21` [Example 2.8, 3-Methyl-1-(2-methyl-pyridin-3-yl)-8-(1H-pyrrolo[2,3-b]pyridin-5-yl)-1,3-dihydro-imidazo[4,5-c]quinolin-2-one]: the pIC50 was 6.76. The same measure, in the same setting: the same measure for `Cn1c(=O)n(-c2cccnc2F)c2c3cc(-c4cnc5[nH]ccc5c4)ccc3ncc21` [Example 6.3, 1-(2-Fluoro-pyridin-3-yl)-3-methyl-8-(1H-pyrrolo[2,3-b]pyridin-5-yl)-1,3-dihydro-imidazo[4,5-c]quinolin-2-one]: 6.95.

For the origin of these results see patent US20100311714A1, “1H-IMIDAZO[4,5-c]QUINOLINONE COMPOUNDS” (priority 2009, published 2010).
